Structures can show the parent of a compound that is named as a salt. One block for each molecule: values may come before it.
Assays:
Type in all cases: biochemical
bovine α-chymotrypsin = target: T1, bovine α-chymotrypsin (Bos taurus, UniProt P00766); assay: In vitro inhibition of purified enzymes: chymotrypsin, hydrolysis of N-succinyl-Ala-Ala-Pro-Phe-p-nitroanilide
T1 construct: Bovine α-chymotrypsin (Sigma C4129); purchased Sigma C4129
Text: (§1) Reagents: All buffer salts were obtained from Sigma Chemical Company (St. Louis, Mo.), and were of the highest purity available. The enzyme substrates, N-benzoyl-Phe-Val-Arg-p-nitroaniide (Sigma B7632) N-benzoyl-Ile-Glu-Gly-Arg-p-nitroanilide hydrochloride (Sigma B2291), N-p-Tosyl-Gly-Pro-Lys-p-nitroanilide (Sigma T6140), N-succinyl-Ala-Ala-Pro-Phe-p-nitroanilide (Sigma S7388) and N-CBZ-Val-Gly-Arg-p-nitroanilide (Sigma C7271) were obtained from Sigma. N-succinyl-Ala-Ala-Pro-Arg-p-nitroanilide (BACHEM L-1720) and N-succinyl-Ala-Ala-Pro-Val-p-nitroanilide (BACHEM L-1770) were obtained from BACHEM (King of Prussia, Pa.).
(§2) Human α-thrombin, human factor Xa and human plasmin were obtained from Enzyme Research Laboratories (South Bend, Id.). Bovine α-chymotrypsin (Sigma C4129), bovine trypsin (Sigma T8642) and human kidney cell urokinase (Sigma U5004) were obtained from Sigma. Human leukocyte elastase was obtained from Elastin Products (Pacific, Mo.).
(§3) Ki Determinations: All assays are based on the ability of the test compound to inhibit the enzyme catalyzed hydrolysis of a peptide p-nitroanilide substrate. In atypical Ki determination, substrate is prepared in DMSO, and diluted into an assay buffer consisting of 50 mM HEPES, 200 mM NaCl, pH 7.5. The final concentrations for each of the substrates is listed below. In general, substrate concentrations are lower than the experimentally determined value for Km. Test compounds are prepared as a 1.0 mg/ml solution in DMSO. Dilutions are prepared in DMSO yielding 8 final concentrations encompassing a 200 fold concentration range. Enzyme solutions are prepared at the concentrations listed below in assay buffer.
(§4) In a typical Ki determination, into each well of a 96 well plate is pipetted 280 mL of substrate solution, 10 mL of test compound solution, and the plate allowed to thermally equilibrate at 37° C. in a Molecular Devices plate reader for>15 minutes. Reactions were initiated by the addition of a […] aliquot of enzyme and the absorbance increase at 405 nm is recorded for 15 minutes. Data corresponding to less than 10% of the total substrate hydrolysis were used in the calculations. The ratio of the velocity (rate of change in absorbance as a function of time) for a sample containing no test compound is divided by the velocity of a sample containing test compound, and is plotted as a function of test compound concentration. The data are fit to a linear regression, and the value of the slope of the line calculated. The inverse of the slope is the experimentally determined Ki value.
Chymotrypsin: Chymotrypsin activity was assessed as the ability to hydrolyze N-succinyl-Ala-Ala-Pro-Phe-p-nitroanilide. […] Final DMSO concentration was 4.3%. Purified bovine chymotrypsin was diluted into assay buffer to a concentration of 81 nM. Final reagent concentrations were: [Chymotrypsin]=2.7 nM, [N-succinyl-Ala-Ala-Pro-Phe-p-nitroanilide]=14 mM.

human leukocyte elastase = target: T2, human leukocyte elastase (Homo sapiens, UniProt P08246); assay: In vitro inhibition of purified enzymes: elastase, hydrolysis of N-succinyl-Ala-Ala-Pro-Val-p-nitroanilide
T2 construct: purchased Elastin Products (Pacific, Mo.)
T2 sequence (P08246 30-247 limits assumed): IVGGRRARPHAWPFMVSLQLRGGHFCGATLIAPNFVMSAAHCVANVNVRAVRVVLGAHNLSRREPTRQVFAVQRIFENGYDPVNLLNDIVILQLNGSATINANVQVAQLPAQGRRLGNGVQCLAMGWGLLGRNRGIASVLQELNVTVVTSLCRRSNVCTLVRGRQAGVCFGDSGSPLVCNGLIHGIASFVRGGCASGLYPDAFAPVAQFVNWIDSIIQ
Text: as §1, §2, §3, §4
Elastase: Elastase activity was assessed as the ability to hydrolyze N-succinyl-Ala-Ala-Pro-Val-p-nitroanilide. Substrate solutions were prepared at a concentration of 19 mM (19 mM<<Km=89 mM) in assay buffer. Final DMSO concentration was 4.3%. Purified human leukocyte elastase was diluted into assay buffer to a concentration of 750 nM. Final reagent concentrations were: [Elastase]=25 nM, [N-succinyl-Ala-Ala-Pro-Val-p-nitroanilide]=19 mM.

human factor Xa = target: T3, human factor Xa (Homo sapiens, UniProt P00742); assay: In vitro inhibition of purified enzymes: Factor X [FXa], hydrolysis of N-benzoyl-Ile-Glu-Gly-Arg-p-nitroanilide; details: for Ki: 37° C., pH 7.5
T3 construct: purchased Enzyme Research Laboratories (South Bend)
T3 sequence (P00742 235-488 limits assumed): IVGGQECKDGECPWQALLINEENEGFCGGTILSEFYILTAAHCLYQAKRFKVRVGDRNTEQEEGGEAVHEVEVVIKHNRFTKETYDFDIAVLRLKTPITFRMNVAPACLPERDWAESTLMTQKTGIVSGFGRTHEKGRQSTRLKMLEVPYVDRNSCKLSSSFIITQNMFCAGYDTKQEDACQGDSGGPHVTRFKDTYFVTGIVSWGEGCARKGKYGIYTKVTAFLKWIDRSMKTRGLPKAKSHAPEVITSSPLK
T3 sequence (P00742 41-179 partner limits assumed): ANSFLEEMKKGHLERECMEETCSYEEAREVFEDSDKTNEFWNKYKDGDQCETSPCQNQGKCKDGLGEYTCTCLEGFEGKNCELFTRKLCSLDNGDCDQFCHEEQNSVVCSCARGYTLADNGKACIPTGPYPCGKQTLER
Text: as §1, §2, §3, §4
Factor X [FXa]: FXa activity was assessed as the ability to hydrolyze the substrate N-benzoyl-Ile-Glu-Gly-Arg-p-nitroanilide hydrochloride. […] Final DMSO concentration was 4.3%. Purified activated human Factor X was diluted into assay buffer to a concentration of 300 nM. Final reagent concentrations were: [FXa]=10 nM, [N-benzoyl-Ile-Glu-Gly-Arg-p-nitroanilide hydrochloride]=51 mM.

human α-thrombin = target: T4, human α-thrombin (Homo sapiens, UniProt P00734); assay: In vitro inhibition of purified enzymes: thrombin, hydrolysis of N-succinyl-Ala-Ala-Pro-Arg-p-nitroanilide; details: 37° C., pH 7.5
T4 construct: Purified human a-thrombin was diluted into assay buffer; purchased Enzyme Research Laboratories (South Bend)
Text: as §1, with “Sigma.” for “Sigma. N-succinyl-Ala-Ala-Pro-Arg-p-nitroanilide (BACHEM L-1720) and N-succinyl-Ala-Ala-Pro-Val-p-nitroanilide (BACHEM L-1770) were obtained from BACHEM (King of Prussia, Pa.).”
as §2
as §3, with “In atypical Ki determination, substrate is prepared in DMSO, and diluted into an assay buffer consisting of 50 mM HEPES, 200 mM NaCl, pH 7.5.” left out
as §4, with “Reactions” for “In a typical Ki determination, into each well of a 96 well plate is pipetted 280 mL of substrate solution, 10 mL of test compound solution, and the plate allowed to thermally equilibrate at 37° C. in a Molecular Devices plate reader for>15 minutes. Reactions”
Thrombin: Thrombin activity was assessed as the ability to hydrolyze the substrate N-succinyl-Ala-Ala-Pro-Arg-p-nitroanilide. […] Final reagent concentrations were: [thrombin]=0.5 nM, [substrate N-succinyl-Ala-Ala-Pro-Arg-p-nitroanilide]=32 mM.

human plasmin = target: T5, human plasmin (Homo sapiens, UniProt P00747); assay: In vitro inhibition of purified enzymes: plasmin, hydrolysis of N-p-Tosyl-Gly-Pro-Lys-p-nitroanilide
T5 construct: Purified human plasmin was diluted into assay buffer; purchased Enzyme Research Laboratories (South Bend)
T5 sequence (P00747 581-810 limits assumed): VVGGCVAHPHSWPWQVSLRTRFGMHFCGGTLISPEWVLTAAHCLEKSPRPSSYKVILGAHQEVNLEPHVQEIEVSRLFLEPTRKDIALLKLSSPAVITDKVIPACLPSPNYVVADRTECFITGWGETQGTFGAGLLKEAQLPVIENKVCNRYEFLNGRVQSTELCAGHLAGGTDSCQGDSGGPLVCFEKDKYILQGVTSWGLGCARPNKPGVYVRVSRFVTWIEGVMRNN
T5 sequence (P00747 97-580 partner limits assumed): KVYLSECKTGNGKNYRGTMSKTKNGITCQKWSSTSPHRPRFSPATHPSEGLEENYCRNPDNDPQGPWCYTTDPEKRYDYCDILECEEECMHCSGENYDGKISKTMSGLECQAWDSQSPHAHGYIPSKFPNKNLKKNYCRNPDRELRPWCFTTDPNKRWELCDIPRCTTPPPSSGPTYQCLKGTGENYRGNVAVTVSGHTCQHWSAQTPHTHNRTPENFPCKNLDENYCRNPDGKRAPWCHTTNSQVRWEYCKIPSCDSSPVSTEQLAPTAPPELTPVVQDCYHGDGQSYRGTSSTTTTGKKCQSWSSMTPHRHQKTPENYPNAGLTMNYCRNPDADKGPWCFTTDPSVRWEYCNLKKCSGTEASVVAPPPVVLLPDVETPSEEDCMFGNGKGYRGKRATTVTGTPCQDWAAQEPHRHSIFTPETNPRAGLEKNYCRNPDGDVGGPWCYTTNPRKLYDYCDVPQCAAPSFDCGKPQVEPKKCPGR
Text: as §1, §2, §3, §4
Plasmin: Plasmin activity was assessed as the ability to hydrolyze the N-p-Tosyl-Gly-Pro-Lys-p-nitroanilide. Substrate solutions were prepared at a concentration of 37 mM (37 mM<<Km=243 mM) in assay buffer. Final DMSO concentration was 4.3%. Purified human plasmin was diluted into assay buffer to a concentration of 240 nM. Final reagent concentrations were: [Plasmin]=8 nM, [N-p-Tosyl-Gly-Pro-Lys-p-nitroanilide]=37 mM.

bovine trypsin = target: T6, bovine trypsin (Bos taurus, UniProt P00760); assay: In vitro inhibition of purified enzymes: trypsin, hydrolysis of N-benzoyl-Phe-Val-Arg-p-nitroanilide; details: for Ki: 37° C., pH 7.5
T6 construct: Purified bovine trypsin was diluted into assay buffer; purchased Sigma T8642
T6 sequence (P00760 24-246): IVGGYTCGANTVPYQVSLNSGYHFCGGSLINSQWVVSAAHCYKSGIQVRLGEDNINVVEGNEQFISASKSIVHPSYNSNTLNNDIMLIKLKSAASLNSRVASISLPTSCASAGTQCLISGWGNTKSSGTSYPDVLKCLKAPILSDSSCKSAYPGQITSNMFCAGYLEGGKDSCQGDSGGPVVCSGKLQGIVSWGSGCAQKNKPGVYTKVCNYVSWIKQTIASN
Text: as §1, §2, §3, §4
Trypsin: Trypsin activity was assessed as the ability to hydrolyze N-benzoyl-Phe-Val-Arg-p-nitroanilide. […] Final DMSO concentration was 4.3%. Purified bovine trypsin was diluted into assay buffer to a concentration of 120 nM. Final reagent concentrations were: [Trypsin]=4 nM, [N-benzoyl-Phe-Val-Arg-p-nitroanilide]=13 mM.

Compound: Cc1ccc(NS(=O)(=O)Cc2ccccc2)c(=O)n1CC(=O)NCCCONC(=N)N.O=C(O)C(F)(F)F [Example 1, 3-Benzylsulfonylamino-6-methyl-1-[(3-guanidinooxypropyl)aminocarbonylmethyl]-2-pyridinone trifluorocaetate]
% Inhibition Chymo. (bovine α-chymotrypsin; at 24,000 nM): 0 @ %
% Inhibition Elastase (human leukocyte elastase; at 24,000 nM): 0 @ %
% Inhibition FXa (human factor Xa; at 24,000 nM): 0 @ %
Ki (human α-thrombin): 53 nM
% Inhibition Plasmin (human plasmin; at 24,000 nM): 0 @ %
% Inhibition Trypsin (bovine trypsin; at 24,000 nM): 0 @ %

Ki (bovine α-chymotrypsin; 37° C., pH 7.5, read-out: Ki Chymo.): 14000 nM
inhibition at 24.5 µM (human leukocyte elastase; at 24,500 nM): 0%
Ki (human factor Xa): 24000 nM
Ki (human α-thrombin): 7.9 nM
inhibition at 24.5 µM (human plasmin; at 24,500 nM): 0%
inhibition at 24.5 µM (bovine trypsin; at 24,500 nM): 0%
Compound: Cc1ccc(NS(=O)(=O)Cc2ccccc2)c(=O)n1CC(=O)NCCONC(=N)N [Example 2, 3-Benzylsulfonylamino-6-methyl-1-[(2-guanidinooxyethyl)aminocarbonylmethyl]-2-pyridinone trifluoroacetate]

inhibition at 79 µM (human leukocyte elastase; at 79,000 nM): 0%
Ki (human factor Xa): 7900 nM
Ki (human α-thrombin): 29 nM
Compound: N=C(N)NOCCNC(=O)Cn1cccc(NS(=O)(=O)Cc2ccccc2)c1=O [Example 4, 3-Benzylsulfonylamino-1-[(2-guanidinooxyethyl)aminocarbonylmethyl]-2-pyridinone trifluoroacetate]

inhibition at 24.6 µM (bovine α-chymotrypsin; at 24,600 nM, read-out: % Inhibition Chymo.): 0%
inhibition at 24.6 µM (human leukocyte elastase; at 24,600 nM): 0%
inhibition at 24.6 µM (human plasmin; at 24,600 nM): 0%
inhibition at 24.6 µM (bovine trypsin; at 24,600 nM): 0%
Compound: Cc1cccc(S(=O)(=O)Nc2ccc(C)n(CC(=O)NCCONC(=N)N)c2=O)c1 [Example 5, 3-(3-Methylphenylsulfonyl)amino-6-methyl-1-[(2-guanidinooxyethyl)aminocarbonylmethyl]-2-pyridinone trifluoroacetate]

inhibition at 56 µM (human leukocyte elastase; at 56,000 nM): 0%
Ki (human α-thrombin): 43 nM
inhibition at 56 µM (bovine trypsin; at 56,000 nM): 0%
Compound: Cc1ccc(NS(=O)(=O)Cc2ccccc2)c(=O)n1CC(=O)N1CCC(ONC(=N)N)CC1 [Example 8, 3-(Benzylsulfonyl)amino-6-methyl-1-[(4-guanidinooxy)piperidinylcarbonylmethyl]-2-pyridinone trifluoroacetate]

inhibition at 19 µM (human leukocyte elastase; at 19,000 nM): 0%
Ki (human factor Xa): 2200 nM
Ki (human α-thrombin): 2 nM
Ki (bovine trypsin): 4000 nM
Compound: Cc1ccc(NS(=O)(=O)Cc2ccc(Cl)cc2)c(=O)n1CC(=O)NCCONC(=N)N [Example 16, 3-(4-Chlorobenzylsulfonyl)amino-6-methyl-1-[(2-guanidinooxyethyl)aminocarbonylmethyl]-2-pyridinone trifluoroacetate]

inhibition at 18 µM (human leukocyte elastase; at 18,000 nM): 0%
Ki (human factor Xa): 2200 nM
Ki (human α-thrombin): 2 nM
Ki (bovine trypsin): 7600 nM
Compound: Cc1ccc(NS(=O)(=O)Cc2ccc(Cl)c(Cl)c2)c(=O)n1CC(=O)NCCONC(=N)N [Example 24, 3-(3,4-Dichlorobenzylsulfonyl)amino-6-methyl-1-[(2-guanidinooxyethyl)aminocarbonylmethyl]-2-pyridinone trifluoroacetate]

inhibition at 23.5 µM (bovine α-chymotrypsin; at 23,500 nM, read-out: % Inhibition Chymo.): 0%
inhibition at 23.5 µM (human leukocyte elastase; at 23,500 nM): 0%
Ki (human factor Xa): 7600 nM
Ki (human α-thrombin): 61 nM
inhibition at 23.5 µM (human plasmin; at 23,500 nM): 0%
inhibition at 23.5 µM (bovine trypsin; at 23,500 nM): 0%
Compound: Cc1ccc(NS(=O)(=O)c2ccccc2Cl)c(=O)n1CC(=O)NCCONC(=N)N [Example 30, 3-(2-Chlorophenylsulfonyl)amino-6-methyl-1-[(2-guanidinooxyethyl)aminocarbonylmethyl]-2-pyridinone trifluoroacetate]

inhibition at 20 µM (bovine α-chymotrypsin; at 20,000 nM, read-out: % Inhibition Chymo.): 0%
inhibition at 20 µM (human leukocyte elastase; at 20,000 nM): 0%
Ki (human factor Xa): 420 nM
Ki (human α-thrombin): 51 nM
inhibition at 20 µM (human plasmin; at 20,000 nM): 0%
inhibition at 20 µM (bovine trypsin; at 20,000 nM): 0%
Compound: Cc1ccc(NS(=O)(=O)c2ccc(I)cc2)c(=O)n1CC(=O)NCCONC(=N)N [Example 38, 3-(4-Iodophenylsulfonyl)amino-6-methyl-1-[(2-guanidinooxyethyl)aminocarbonylmethyl]-2-pyridinone trifluoroacetate]

Ki (human factor Xa): 2100 nM
Ki (human α-thrombin): 220 nM
Ki (bovine trypsin): 2300 nM
Compound: COc1ccc(Br)cc1S(=O)(=O)Nc1ccc(C)n(CC(=O)NCCONC(=N)N)c1=O [Example 55, 3-(3-Bromo-6-methoxyphenylsulfonyl)amino-6-methyl-1-[(2-guanidinooxyethyl)aminocarbonylmethyl]-2-pyridinoine trifluoroacetate]

From US6350764B2, “Heteroaryl aminoguanidines and alkoxyguanidines and their use as protease inhibitors” (3-Dimensional Pharmaceuticals, Inc., priority 1997, dated 2002)
